{
  "source": "patent US5004756A",
  "about": "“Anti-cancer activity potentiator” (priority 1988, dated 1991)",
  "molecules": {"B1": {"name": "neocartinostatin (protein, UniProt P0A3R9 35-147, looked up)", "Neocarzinostatin": "AAPTATVTPSSGLSDGTVVKVAGAGLQAGTAYDVGQCAWVDTGVLACNPADFSSVTADANGSASTSLTVRRSFEGFLFDGTRWGTVDCTTAACQVGLSDAAGNGPEGVAISFN"}},
  "key": {"[1]": {"tested_on": "clinically isolated human cancer cells (lung adenocarcinoma, lung squamous cell carcinoma, osteosarcoma, ovarian carcinoma)", "experiment": "Anti-tumor activity on clinically isolated human cancer cells, morphological changes (A-I Part 2)", "type": "cell-based", "settings": "0.2 μg/ml", "protocol": "Lung adenocarcinoma, lung squamous cell carcinoma, osteosarcoma and ovarian carcinoma were selected as clinically isolated human cancer cells, and the anti-tumor activities of various drugs were examined. Specifically, various tumor tissues were individually cut to thin pieces by a razor, and by washing in saline by using a 1 mm mesh, the connective tissues were removed. The resulting solution was centrifuged at 1000 rpm for 1 minute to remove necrotizing substances. Washing with saline gave tumor cells.\nThey were incubated at 37° for 4 to 8 hours. Thereafter, pumping was carried out to disperse the tissue pieces. Then, centrifugation at 1000 rpm for 5 minutes, cell coating and Giemsa staining were performed. The anti-tumor activity of each drug was examined on the basis of observation of the morphological changes of the tumor cells under a microscope.\nThe experiment was conducted on two examples of each tumor cells (total 8 examples)."}, "V79/S [2]": {"tested_on": "V79/S", "experiment": "Anti-cancer activity potentiating action, colony formation, V79/S parent cells (A-III)", "type": "cell-based, Chinese hamster", "settings": "for IC50: Cricetulus griseus", "method": "(§1) The anti-cancer activity potentiating action of the malate of formula (I) was examined using Chinese hamster cells (sensitive cell line V79/S and ADM-resistant cell line V79/ADM), human hepatoma cells (sensitive cell line PLC/S and colchicin-resistant cell line PLC/Col) and mouse leukemia cells (sensitive cell line L5178Y/S) and aclarubicin-resistant cell line L5178Y/ACR).\n(§2) Of these tumor cells, the sensitive cells (400 cells) and the resistant cells (600 cells) were each incubated in 10 ml of Eagle's MEM medium containing 10% bovine serum for 24 hours, and then each of the test drugs indicated in Table 6 was added. Thereafter, the incubation was carried out for 9 days. The concentration (IC50 : micrograms/ml) of the test drug required to inhibit 50% of the colony formation (proliferation) of the tumor cells was calculated.\n(§3) (A) Chinese hamster V79 cells\n(§4) As anti-cancer agents, there were used adriamycin (ADM), aclarubicin (ACR), actinomycin D (ACD), 5-fluorouracil (5-FU), cytarabin (Ara-C), cisplatin (CDDP), methotrexate (MTX), mitomycin C (MMC), nimustine (ACNU), mitoxantrone, etoposide ([…]), vincristine (VCR), bleomycin (BLM) and peplomycin (PEP). For the sensitive cells, the anti-cancer agents were used in combination with 10 micrograms/ml of the malate of formula (I), and for the resistant cells, the anti-cancer agents were used in combination with the malate of formula (I) 3 micrograms/ml, 5 micrograms/ml, and 10 micrograms/ ml."}, "V79/ADM [3]": {"tested_on": "V79/ADM", "experiment": "Anti-cancer activity potentiating action, colony formation, V79/ADM resistant cells (A-III)", "type": "cell-based, Chinese hamster", "settings": "V79/ADM; for IC50: Cricetulus griseus", "method": "as §1, §2, §3, §4"}, "Meth-A": {"tested_on": "Meth-A", "experiment": "Tumor proliferation inhibiting activity, Meth-A (A-IV)", "type": "in vivo, BALB/c rats", "settings": "MMC 1.0 mg/kg/day, days 1-5", "method": "Female BALB/c rats (7 weeks old), 8 per group, were used. Tumor cells (Meth-A) induced by methyl cholanthrene were transplanted intraperitoneally to the rats, and then the malate of formula (I) was administered intraperitoneally to the rats. The proliferation inhibiting activity of the malate was examined by comparing the weight of the tumor cells with that of the tumor cells in the non-treated control group.\nThe dose of the malate of formula (I) was 1.25, 2.5, 5.0, and 10.0 mg/kg/day. Mitomycin C (MMC) was administered as another anti-cancer agent. The weight of the tumor cells was measured, and the proliferation inhibiting activity was determined.\nThe weight (g) of the tumor with respect to that of the tumor in the control group (T/C, %) after 16 days from the transplantation of the tumor cells, and the number of surviving rats after 16 days are shown in Table 8."}, "[4]": {"tested_on": "human tumor cells (muscle fibrosarcoma HT-1080)", "experiment": "Anti-cancer activity potentiating action in nude mice with HT-1080 (A-VI)", "type": "in vivo, human tumor in ICR nude mice", "settings": "MMC 3 mg/kg, days 5, 10, 15, 20; day 36", "method": "ICR nude mice, 6 per group, were used, and the experiment was conducted substantially in accordance with the procedure described in A-V.\nAs tumor cells, human tumor cells (muscle fibrosarcoma HT-1080) were used, and 5 days after the transplantation, drug administration was started.\nThe administration was further performed every 5 days from the day of starting the administration, and the total number of administrations was therefore 4.\nMitomycin C (MMC) was tested by the same way as above.\nThirty-six days after the transplantation of the tumor, a tumor mass was extracted and its weight was measured. From the difference of the weight of the tumor from the non-treated control group, the tumor growth inhibition ratio (%) was calculated."}, "V79/S [5]": {"tested_on": "V79/S", "experiment": "Colony formation (proliferation) inhibition, sensitive Chinese hamster cells (A-I Part 1)", "type": "cell-based", "settings": "V79/S; 9 days; Table 1", "method": "(§5) Sensitive cell line V79/S and ADM-resistant cell line V79/ADM of the Chinese hamster were used, and sensitive cell line PLC/S and cholchicin-resistant cell line PLC/Col, as human hepatoma cells.\n(§6) The sensitive cell lines (400 cells) or the resistant cell lines (600 cells) were each incubated for 24 hours in 10 ml of Eagle's MEM medium containing 10% bovine serum. Each of the drugs indicated in Table 1 below was dissolved in ethanol, and 50 microliters of the resulting solution was added to the medium. The incubation was further carried out for 9 days. The concentration of the drug which inhibits 50% of the colony formation (proliferation) of the tumor cells was calculated.\n(§7) V79/S and V79/ADM were tested by using all of the drugs described above, but PLC/S and PLC/Col were tested by using only the malate of formula (I), adriamycin and peplomycin.\n(§8) The concentrations (micrograms/ml) required to inhibit 50% of the proliferation of the tumor cells, expressed by IC50, are shown in Table 1."}, "V79/ADM [6]": {"tested_on": "V79/ADM", "experiment": "Colony formation (proliferation) inhibition, ADM-resistant Chinese hamster cells (A-I Part 1)", "type": "cell-based", "settings": "V79/ADM; 9 days; Table 1", "method": "as §5, §6, §7, §8"}, "PLC/S [7]": {"tested_on": "PLC/S", "experiment": "Colony formation (proliferation) inhibition, sensitive human hepatoma cells (A-I Part 1)", "type": "cell-based", "settings": "PLC/S; 9 days; Table 1", "method": "as §5, §6, §7, §8"}, "PLC/Col [8]": {"tested_on": "PLC/Col", "experiment": "Colony formation (proliferation) inhibition, colchicin-resistant human hepatoma cells (A-I Part 1)", "type": "cell-based", "settings": "PLC/Col; 9 days; Table 1", "method": "as §5, §6, §7, §8"}, "PLC/S [9]": {"tested_on": "PLC/S", "experiment": "Anti-cancer activity potentiating action, colony formation, PLC/S parent cells (A-III)", "type": "cell-based, human", "settings": "PLC/S; with compound (I) 5 μg/ml", "method": "as §1, §2\n(§9) As anti-cancer agents, adriamycin (ADM) and peplomycin (PEP) were used in combination with the malate of formula (I) (5 micrograms/ml)."}, "PLC/Col [10]": {"tested_on": "PLC/Col", "experiment": "Anti-cancer activity potentiating action, colony formation, PLC/Col resistant cells (A-III)", "type": "cell-based, human", "settings": "PLC/Col; with compound (I) 5 μg/ml", "method": "as §1, §2, §9"}, "B16 melanoma cells": {"tested_on": "B16 melanoma cells", "experiment": "Life prolongation of BDF1 mice with B16 melanoma (A-II Part 1)", "type": "in vivo, mouse (male BDF1)", "settings": "0.45 mg/kg i.p., three times every 4 days", "method": "Three to eight male BDF1 mice having a body weight of 20±3 g were used, and B16 melanoma cells were selected as tumor cells. The melanoma cells were homogenized, and the homogenate was transplanted subcutaneously to the mice in an amount of 0.5 ml/mouse. After 7 days, the malate of formula (I) in accordance with this invention and an anti-cancer agent, neocartinostatin (NCS), were intraperitoneally administered either singly or in combination three times every 4 days in a dose of 5 mg/kg and 0.45 mg/kg for each time. The life prolonging rate of the mice was determined by the treated group/non-treated control group (T/C %)."}, "[11]": {"settings": "V79/S, with compound (I) 10 μg/ml"}},
  "data": [
    {"molecule": "CO[C@@]12[C@H](COC(N)=O)C3=C(C(=O)C(C)=C(N)C3=O)N1C[C@@H]1N[C@@H]12", "note": "[MMC, mitomycin C]", "values": [
      {"measurement": "Efficacy ratio (rated significant by Fisher's test)", "setting": "[1]", "result": "0/8"},
      {"measurement": "IC50", "setting": "V79/S [2]; read-out: IC50 in combination with compound (I)", "result": 0.01, "unit": "µg/mL"},
      {"measurement": "IC50", "setting": "V79/S [2]; V79/S, alone, Table 6, read-out: IC50, anti-cancer agent alone", "result": 0.02, "unit": "µg/mL"},
      {"measurement": "Potentiation activity", "setting": "V79/S [2]; [11]", "result": 2.0, "unit": "times"},
      {"measurement": "IC50", "setting": "V79/ADM [3]; alone, Table 6, read-out: IC50, anti-cancer agent alone", "result": 0.057, "unit": "µg/mL"},
      {"measurement": "IC50", "setting": "V79/ADM [3]; with compound (I) 5 μg/ml, read-out: IC50 in combination with compound (I)", "result": 0.011, "unit": "µg/mL"},
      {"measurement": "Potentiation activity", "setting": "V79/ADM [3]; with compound (I) 5 μg/ml", "result": 5.20, "unit": "times"},
      {"measurement": "Number of surviving animals", "setting": "Meth-A; 16 days later", "result": "8/8"},
      {"measurement": "T/C (tumor weight)", "setting": "Meth-A; day 16", "result": 21, "unit": "%"},
      {"measurement": "Tumor weight mean ± S.D.", "setting": "Meth-A; day 16", "result": "0.347 ± 0.185", "unit": "g"},
      {"measurement": "Tumor growth inhibition ratio", "setting": "[4]", "result": 47.0, "unit": "%"},
      {"measurement": "Tumor weight", "setting": "[4]", "result": "1.92 ± 0.27"}
    ]},
    {"molecule": "Cc1c(N)nc([C@H](CC(N)=O)NC[C@H](N)C(N)=O)nc1C(=O)N[C@H](C(=O)N[C@H](C)[C@@H](O)[C@H](C)C(=O)N[C@H](C(=O)NCCc1nc(-c2nc(C(=O)NCCCN[C@@H](C)c3ccccc3)cs2)cs1)[C@@H](C)O)[C@@H](O[C@@H]1O[C@@H](CO)[C@@H](O)[C@H](O)[C@@H]1O[C@H]1O[C@H](CO)[C@@H](O)[C@H](OC(N)=O)[C@@H]1O)c1c[nH]cn1", "note": "[PEP, peplomycin]", "values": [
      {"measurement": "IC50", "setting": "V79/S [5]", "result": 1.95, "unit": "µg/mL"},
      {"measurement": "IC50", "setting": "V79/ADM [6]", "result": 0.48, "unit": "µg/mL"},
      {"measurement": "IC50", "setting": "PLC/S [7]", "result": 0.24, "unit": "µg/mL"},
      {"measurement": "IC50", "setting": "PLC/Col [8]", "result": 0.19, "unit": "µg/mL"},
      {"measurement": "IC50, anti-cancer agent alone", "setting": "V79/S [2]; V79/S, alone, Table 6", "result": 1.95, "unit": "µg/mL"},
      {"measurement": "IC50 in combination with compound (I)", "setting": "V79/S [2]; [11]", "result": 0.0165, "unit": "µg/mL"},
      {"measurement": "Potentiation activity", "setting": "V79/S [2]; [11]", "result": 118, "unit": "times"},
      {"measurement": "IC50, anti-cancer agent alone", "setting": "V79/ADM [3]; alone, Table 6", "result": 0.48, "unit": "µg/mL"},
      {"measurement": "IC50 in combination with compound (I)", "setting": "V79/ADM [3]; with compound (I) 3 μg/ml", "result": 0.0157, "unit": "µg/mL"},
      {"measurement": "Potentiation activity", "setting": "V79/ADM [3]; with compound (I) 3 μg/ml", "result": 30.5, "unit": "times"},
      {"measurement": "Potentiation activity", "setting": "PLC/S [9]", "result": 3.0, "unit": "times"},
      {"measurement": "Potentiation activity", "setting": "PLC/Col [10]", "result": 6.3, "unit": "times"}
    ]},
    {"molecule": "B1", "values": [
      {"measurement": "T/C (life prolonging rate at M.S.T.)", "setting": "B16 melanoma cells", "result": 135, "unit": "%"}
    ]}
  ]
}
